Reference: patent US7235263B2, “Processes for controlling microbial organic compound production” (Kimberly-Clark Worldwide, Inc., priority 2001, dated 2007)

How the values were obtained:
[1] = test system: Proteus mirabilis (ATCC 29906); assay: Bacterial yield of facultatively grown Proteus mirabilis in urine:TSB (from optical density); type: cell-based; settings: for Bacterial Yields: facultative
Procedure: Proteus mirabilis (ATCC 29906) were recovered from frozen state by growing the appropriate bacterial coated MicroBank Bead (Pro Lab, Austin Tex.) in 10 mL trypticase soy broth (TSB, Difco, Ann Arbor, Mich.) in a 15 mL sterile loosely tightened screw capped conical tube overnight at 37° C. The tube was held stationary. (E. coli (ATCC 8739), utilized in Example 6 herein, was recovered using the same procedure described herein for Proteus mirabilis). Upon observation of turbidity, the bacterial suspension was checked for purity by isolation plate and Gram stain. Once determined that the isolate was Proteus mirabilis (or E. coli in Example 6), a colony from the isolation plate was transferred to 10 mL of TSB in a 15 mL sterile screw capped conical tube and incubated overnight at 37° C. under facultative conditions. Samples of bacterial suspension resulting from this overnight TSB culture were used to initiate all experiments utilizing Proteus mirabilis bacteria (or E. coli in Example 6).
(§1) Proteus mirabilis was taken from a TSB culture (described in (1) above) and grown under various conditions for use in the Examples. For bacteria to be grown under aerobic conditions, 50 microliters of Proteus mirabilis was taken from a TSB culture prepared as described above and inoculated into a 50 mL volume of a freshly made 9:1 (by volume) pooled adult female urine:TSB mixture into a 250 mL shake flask. This mixture was rotated at 250 rpm at 37° C. overnight to grow the bacteria. For bacteria to be grown under facultative conditions, 10 microliters of Proteus mirabilis was taken from a TSB culture prepared as described above and inoculated into a 10 mL volume of a freshly made 9:1 (by volume) pooled adult female urine:TSB mixture into a 15 mL tube. The tube was loosely fitted with a screw cap, and held stationary at 37° C. overnight to grow the bacteria. For bacteria to be grown under anaerobic conditions, 10 microliters of Proteus mirabilis was taken from a TSB culture prepared as described above and inoculated into a 10 mL volume of a freshly made 9:1 (by volume) pooled adult female urine:TSB mixture into a 15 mL conical tube. The tube was purged with nitrogen and a screw cap tightly closed, and then was held stationary overnight at 37° C. to grow the bacteria.
In this Example, five samples were prepared and analyzed to determine: (1) Bacterial Yield (CFU/mL) calculated from optical density; (3) Percent viability of EPIOCULAR; and (4) EPIOCULAR IL-8. The samples included: (1) Deionized Water; (2) A urine:TSB mixture (9:1 by volume) as described above; (3) A urine:TSB mixture containing Proteus mirabilis bacteria grown under aerobic conditions as described above; (4) A urine:TSB mixture containing Proteus mirabilis bacteria grown under facultative conditions as described above; and (5) A urine:TSB mixture containing Proteus mirabilis bacteria grown under anaerobic conditions as described above.
(§2) In this Example, six different samples were prepared for analysis. The first sample comprised a urine:TSB mixture that was prepared in the same manner as that described in Example 1. […] The tube was loosely fitted with a screw cap, and held stationary at 37° C. overnight to grow the bacteria. […] The fifth sample comprising urine:TSB:Proteus mirabilis (facultatively grown) was prepared in the same manner as that described in Example 1.

[2] = test system: interleukin-8 (IL-8); assay: IL-8 release by EPIOCULAR skin culture challenged with sample; type: cell-based, human; settings: for IL-8: Table 5, 6 hours; for IL-8 (n = 3): Table 6
Source text: (§3) In order to evaluate the amount of skin irritation by various samples prepared in the Examples, a human skin culture was selected to model the response of the human epidermis to treated and untreated bacterial metabolized urine:TSB mixture. The tissue model selected was an EPIOCULAR Tissue Model (OCL-200 propagated without hydrocortisone), and was purchased from MatTek Corporation (Ashland, Mass.). This model consists of normal, human-derived epidermal keratinocytes, which have been cultured to form a stratified, squamous epithelium similar to that found in the cornea. The epidermal cells, which are cultured on specially prepared cell culture inserts using a serum free medium, differentiate to form a multi-layered structures which closely parallel the corneal epithelium. Experiments using this skin culture were conducted in six parallel wells. Each well contained one milliliter of pre-warmed media that was the same as the model skin culture media. The plates were then incubated in a 37° C., 5% carbon dioxide atmosphere for thirty minutes. After incubation, 25 microliters of the sample were applied to the surface of the model skin culture after removing any residual media. After application of the test solution, the well plates were incubate for 6 hours in the 37° C., 5% carbon dioxide atmosphere. At the end of 6 hours, the well plates were removed from the incubator and the underlying media removed and stored at −80° C. The response of the skin culture to test the compositions/control and the insult solution is determined by measuring the amount of interleukin-1 alpha (IL-1a) and/or interleukin-8 (IL-8). IL-1a and IL-8 were quantified using an Interleukin-1 alpha or Interleukin-8 Quantikine Kit available from R&D Systems (Minneapolis, Minn.).

[3] = test system: interleukin-1 alpha (IL-1a); assay: IL-1a release by EPIOCULAR skin culture challenged with sample; type: cell-based, human; settings: Table 5, 6 hours
Source text: as §3, with “After incubation, 25 microliters of the sample were applied to the surface of the model skin culture after removing any residual media. After application of the test solution, the well plates were incubate for 6 hours in the 37° C., 5% carbon dioxide atmosphere. At the end of 6 hours, the well plates were removed from the incubator and the underlying media removed and stored at −80° C.” left out

[4] = test system: Proteus mirabilis (ATCC 29906); assay: Ammonia production by facultatively grown Proteus mirabilis in urine:TSB (ammonia probe); type: cell-based; settings: for % Reduction of Ammonia: vs urine:TSB:facultative without mannitol peroxide
Procedure: as §1
(§4) Upon completion of the respective incubation periods of the samples, optical density measurements of each sample were taken as described above and ammonia production of the growth solutions was measured using an ammonia combination probe (Beckman, Fullerton, Calif.) by record mV using an Orion pH meter (Orion, Boston, Mass.). Orion ammonia standards (Orion) were used to calibrate the instrument.
as §2

[5] = test system: E. coli (ATCC 8739); assay: Ammonia in urine:TSB with facultatively grown E. coli; type: cell-based; settings: Table 6, facultative E. coli
Procedure: as §4, with “instrument. The four samples were prepared identically to the four samples in Example 5 with the exception that facultatively grown E. coli was utilized as the bacteria in place of the Proteus mirabilis bacteria. The process for growing facultatively grown E. coli is set forth in Example 1.” for “instrument.”

[6] = facultative Proteus mirabilis grown with 5% mannitol peroxide
[7] = facultative Proteus mirabilis grown with 10% mannitol peroxide
[8] = Table 4, 5% mannitol peroxide, facultative
[9] = Table 4, 10% mannitol peroxide, facultative
[10] = Table 7, 5% mannitol peroxide, facultative

mannitol peroxide
impact on the growth of the cells ([1]; 5% and 10% mannitol peroxide, facultative Proteus mirabilis (Table 4)): very little, if any, impact on the growth of the cells | Bacterial Yields ([1]; Table 3, 5% (w/v) mannitol peroxide, urine:TSB, 37° C. overnight): 1.30E+9 CFU/mL | Bacterial Yields ([1]; Table 3, 10% mannitol peroxide, urine:TSB, 37° C. overnight): 8.20E+8 CFU/mL | Bacterial Yields ([1]; Table 4, 5% mannitol peroxide): 1.30E+9 CFU/mL | Bacterial Yields ([1]; Table 4, 10% mannitol peroxide): 8.2E+8 CFU/mL | Bacterial Yields ([1]; Table 5, 5% (w/v) mannitol peroxide): 1.30E+9 CFU/mL | Bacterial Yields ([1]; Table 5, 10% (w/v) mannitol peroxide): 8.20E+8 CFU/mL | Bacterial Yields ([1]; Table 7, 5% mannitol peroxide): 8.93E+8 CFU/mL | IL-8 [2, 6]: 27224.30 ± 2432.83 pg/mL | IL-8 [2, 7]: 15884.57 ± 839.53 pg/mL | IL-8 (n = 3) ([2]; facultative E. coli grown with 5% MP): 1769.31 ± 103.9 pg/mL | IL-8 (n = 3) ([2]; facultative E. coli grown with 10% MP): 1336.69 ± 60.84 pg/mL | IL-1a [3, 6]: 48.12 ± 8.93 pg/mL | IL-1a [3, 7]: 15.26 ± 12.80 pg/mL | Ammonia/Cell ([4]; Table 3, 5% (w/v) mannitol peroxide, facultative bacteria): 1.6 ppm/CFU E+8 | Ammonia Produced (n = 3) ([4]; Table 3, 5% (w/v) mannitol peroxide, urine:TSB, facultative bacteria): 34.5 ± 12.6 ppm | Ammonia/Cell ([4]; Table 3, 10% mannitol peroxide, facultative bacteria): 0.01 ppm/CFU E+8 | Ammonia Produced (n = 3) ([4]; Table 3, 10% mannitol peroxide, urine:TSB, facultative bacteria): 13.9 ± 0.3 ppm | Ammonia (n = 3) [4, 8]: 34.5 ± 12.6 ppm | Ammonia/Cell [4, 8]: 1.6 ppm/CFU E+8 | % Reduction of Ammonia ([4]; Table 4, 5% mannitol peroxide): 53.6% | Ammonia (n = 3) [4, 9]: 13.9 ± 0.3 ppm | Ammonia/Cell [4, 9]: 0.01 ppm/CFU E+8 | % Reduction of Ammonia ([4]; Table 4, 10% mannitol peroxide): 98.5% | Ammonia Produced (n = 3) [4, 10]: 434.5 ± 7.5 ppm | Ammonia/Cell [4, 10]: 43.84 ppm/10E8CFU | Ammonia ([5]; 5% MP): 12.46 ppm | Ammonia ([5]; 10% MP): 14.04 ppm
